Measured values taken from US4175081A, “5-Substituted thiadiazole ureas” (priority 1977, dated 1979).

Key:
[1] = tested on: Turnip (TP); test: Post-emergence herbicide test; format: in vivo, Brassica sp.; conditions: Brassica rapa, post-emergence, 336 h, two weeks after treatment
How it was run: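 A greenhouse post-emergence herbicide test on turnip. Seeds were sown on the surface of potting soil in 3' plastic pots, lightly covered with screened soil and watered from below. Planting was timed so seedlings had 1 or 2 true leaves above the cotyledons at spraying, done in a hood with a fixed nozzle. Control or injury was scored by eye after two weeks.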

[2] = tested on: Yellow foxtail grass (YF); test: Pre-emergence herbicide test; format: in vivo, Setaria glauca; conditions: Setaria, 336 h, two weeks after treatment
How it was run: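 Seeds surface-sown in potting soil one day before spraying; compounds applied pre-emergence at 8 or 4 lbs/acre in 38 gallons/acre spray. Pots held in greenhouse with sub-irrigation only. Injury or control rated visually two weeks after treatment.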

[3] = tested on: Bean (BN); test: Post-emergence herbicide test; format: in vivo, Phaseolus vulgaris var. Black Valentine; conditions: Phaseolus vulgaris, post-emergence, 336 h, two weeks after treatment
How it was run: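 Snapbean (Phaseolus vulgaris var. Black Valentine) was tested post-emergence. Four seeds were sown in 3' plastic pots of potting soil at a depth equal to the seed diameter, then sub-irrigated in greenhouse trays. Planting dates were staggered so plants were sprayed once primary leaves had expanded, with the growing point at the primary leaf nodes.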

[4] = tested on: Barnyard grass (BG); test: Post-emergence herbicide test; format: in vivo; conditions: Echinochloa crus-galli, 336 h, two weeks after treatment
How it was run: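 Greenhouse pot-grown barnyard grass seedlings sprayed post-emergence at 8 lbs active compound per acre (some at 4 lbs/acre) in 38 gallons per acre, then sub-irrigated. Injury or control rated visually two weeks after treatment.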

[5] = tested on: Johnson grass (JG); test: Post-emergence herbicide test; format: in vivo, Sorgum helepense; conditions: Sorghum halepense, 336 h, two weeks after treatment
How it was run: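 Greenhouse pot-grown seedlings sprayed post-emergence at 8 lbs compound per acre (some at 4 lbs/acre) in 38 gallons per acre spray volume. Sub-irrigated thereafter. Injury/control rated visually two weeks after treatment.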

[6] = tested on: Crabgrass (CG); test: Post-emergence herbicide test; format: in vivo, Digitaria sanquinalis; conditions: Digitaria sanguinalis, post-emergence, 336 h, two weeks after treatment
How it was run: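 Crabgrass (Digitaria sanquinalis) was surface seeded individually in 3' plastic pots of potting soil, covered with screened soil, and watered by sub-irrigation in greenhouse trays. Planting was staggered so seedlings reached the target stage together. Post-emergence sprays were applied in a hood with a removable belt and fixed nozzle, and control was visually rated two weeks after treatment.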

[7] = tested on: Turnip (TP); test: Pre-emergence herbicide test; format: in vivo, Brassica sp.; conditions: Brassica rapa, pre-emergence, 336 h, two weeks after treatment
How it was run: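 Turnip (Brassica sp.) seeds were surface sown in 3' plastic pots of potting soil, covered with a thin layer of screened soil, and sub-irrigated in greenhouse trays. Pots were seeded one day ahead of treatment, sprayed pre-emergence under a hood with a fixed nozzle and moving belt, then kept in the greenhouse.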

[8] = tested on: Amaranth pigweed (PW); test: Post-emergence herbicide test; format: in vivo, Amaranthus retroflexus; conditions: 336 h, two weeks after treatment
How it was run: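 Pot-grown pigweed was sprayed post-emergence at the 1–2 true-leaf stage with compound at rates equivalent to 8 lbs per acre (formulations also prepared for 4 lbs/acre) in 38 gallons per acre, using a hood with fixed nozzle. Plants were sub-irrigated in the greenhouse, and injury or control was rated visually two weeks after treatment.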

[9] = tested on: Bean (BN); test: Pre-emergence herbicide test; format: in vivo, Phaseolus vulgaris var. Black Valentine; conditions: Phaseolus vulgaris, 336 h, two weeks after treatment
How it was run: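 Black Valentine bean was seeded in potting soil one day before spraying. Compound was applied pre-emergence at 8 lbs/acre (also 4 lbs/acre) in 38 gallons per acre. Plants were sub-irrigated and injury or control was rated visually after two weeks.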

[10] = tested on: Barnyard grass (BG); test: Pre-emergence herbicide test; format: in vivo; conditions: Echinochloa crus-galli, 336 h, two weeks after treatment
How it was run: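 Barnyard grass surface-seeded in potting soil and sprayed pre-emergence one day after seeding, at 8 or 4 lb compound/acre in 38 gal/acre spray volume. Pots kept in greenhouse with sub-irrigation only; injury or control rated visually two weeks after treatment.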

[11] = tested on: Corn (CN); test: Pre-emergence herbicide test; format: in vivo; conditions: Zea mays, 336 h, two weeks after treatment
How it was run: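 Four corn seeds per pot, sown at seed-diameter depth one day before spraying, got soil surface treatment at 8 lbs/acre (4 lbs/acre formulations also prepared) in 38 gallons/acre. Pots were greenhouse-held with sub-irrigation only. Injury or control was scored visually two weeks after treatment.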

[12] = tested on: Amaranth pigweed (PW); test: Pre-emergence herbicide test; format: in vivo, Amaranthus retroflexus; conditions: 336 h, two weeks after treatment
How it was run: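 Pigweed was surface-seeded in potted soil one day before spraying at 8 lbs compound per acre, or 4 lbs/acre, in 38 gallons per acre. Pots were kept in the greenhouse with sub-irrigation only; injury or control was rated visually two weeks after treatment.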

[13] = tested on: variety of crops and weed species; test: Pre- and post-emergence herbicide tests, overall assessment of Tables III-VI; format: in vivo; conditions: data of Tables III-VI
How it was run: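 Crops and weeds grown in potting soil were sprayed at 8 lbs. compound per acre in 38 gallons per acre, pre-emergence pots seeded one day before treatment. Injury or control was visually rated two weeks after treatment.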

[14] = tested on: Yellow foxtail grass (YF); test: Post-emergence herbicide test; format: in vivo, Setaria glauca; conditions: Setaria, 336 h, two weeks after treatment
How it was run: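 Potted seedlings grown in greenhouse, planting staggered to reach the target stage together, then sprayed post-emergence at 8 lbs actual compound/acre in 38 gallons/acre (4 lbs/acre formulations also prepared). Sub-irrigated afterwards. Injury or control rated visually two weeks after treatment.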

[15] = tested on: Corn (CN); test: Post-emergence herbicide test; format: in vivo; conditions: Zea mays, 336 h, two weeks after treatment
How it was run: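 Greenhouse seedlings grown in potting soil and sprayed post-emergence at 8 lbs compound/acre (formulations also made for 4 lbs/acre) in 38 gallons/acre spray volume. Watering by sub-irrigation only. Injury or control rated visually two weeks after treatment.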

[16] = tested on: Johnson grass (JG); test: Pre-emergence herbicide test; format: in vivo, Sorgum helepense; conditions: Sorghum halepense, 336 h, two weeks after treatment
How it was run: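 Pots seeded one day before spraying; compound applied pre-emergence at 8 lbs/acre (or 4 lbs/acre) in 38 gallons/acre spray volume. Sub-irrigated in greenhouse; injury/control rated visually two weeks after treatment.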

[17] = tested on: Cotton (CT); test: Pre-emergence herbicide test; format: in vivo, Gossypium hirsutum var. DPL smooth leaf; conditions: Gossypium hirsutum, 336 h, two weeks after treatment
How it was run: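 Crop and weed species seeded one day before treatment, then sprayed pre-emergence at 8 lbs actual compound per acre (also 4 lbs/acre formulations) in 38 gallons per acre. Pots kept in greenhouse with sub-irrigation only; injury or control visually rated two weeks after treatment.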

[18] = tested on: Crabgrass (CG); test: Pre-emergence herbicide test; format: in vivo, Digitaria sanquinalis; conditions: Digitaria sanguinalis, pre-emergence, 336 h, two weeks after treatment
How it was run: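 Crabgrass (Digitaria sanquinalis) was surface seeded in 3' plastic pots of potting soil, covered with screened soil, and watered by sub-irrigation in greenhouse trays. Pots were seeded one day before spraying in a hood with a moving belt and fixed nozzle. Plants stayed in the greenhouse on sub-irrigation, and pre-emergence control was rated visually two weeks after treatment.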

[19] = tested on: Cotton (CT); test: Post-emergence herbicide test; format: in vivo, Gossypium hirsutum var. DPL smooth leaf; conditions: Gossypium hirsutum, post-emergence, 336 h, two weeks after treatment
How it was run: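 Cotton (Gossypium hirsutum var. DPL smooth leaf) was grown in 3' plastic pots of potting soil, four seeds per pot, planted at a depth equal to the seed diameter and watered by sub-irrigation. At the stage of expanded cotyledons with the first true leaf 1' long, plants were sprayed post-emergence in a hood with a fixed nozzle over a moving belt. Percent control was rated visually two weeks later.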

With `CCN(C(=O)NC)c1nnc(C(F)(F)F)s1` [Example 37] the pest or weed control at 2241.7 g/ha ([1]; 2 lb/acre) was 90%, the pest or weed control at 4483.4 g/ha ([1]; 4 lb/acre) was 90% and the pest or weed control at 8966.8 g/ha ([1]; 8 lb/acre) was 100%. The pest or weed control at 2241.7 g/ha ([2]; 2 lb/acre) was 70%, the pest or weed control at 4483.4 g/ha ([2]; 4 lb/acre) was 80% and the pest or weed control at 8966.8 g/ha ([2]; 8 lb/acre) was 90%. It also gave a pest or weed control at 2241.7 g/ha ([3]; 2 lb/acre) of 90%, a pest or weed control at 4483.4 g/ha ([3]; 4 lb/acre) of 100% and a pest or weed control at 8966.8 g/ha ([3]; 8 lb/acre) of 100%. It also gave a pest or weed control at 2241.7 g/ha ([4]; 2 lb/acre) of 20%, a pest or weed control at 4483.4 g/ha ([4]; 4 lb/acre) of 30% and a pest or weed control at 8966.8 g/ha ([4]; 8 lb/acre) of 90%. For the same compound, the pest or weed control ([5]; 2 lb/acre) was 20%, the pest or weed control at 4483.4 g/ha ([5]; 4 lb/acre) was 30% and the pest or weed control at 8966.8 g/ha ([5]; 8 lb/acre) was 70%. For the same compound, the pest or weed control ([6]; 2 lb/acre) was 30%, the pest or weed control at 4483.4 g/ha ([6]; 4 lb/acre) was 40% and the pest or weed control at 8966.8 g/ha ([6]; 8 lb/acre) was 90%. It also gave a pest or weed control at 2241.7 g/ha ([7]; 2 lb/acre) of 100%, a pest or weed control at 4483.4 g/ha ([7]; 4 lb/acre) of 100% and a pest or weed control at 8966.8 g/ha ([7]; 8 lb/acre) of 100%. The pest or weed control at 2241.7 g/ha ([8]; 2 lb/acre) was 90%, the pest or weed control at 4483.4 g/ha ([8]; 4 lb/acre) was 100% and the pest or weed control at 8966.8 g/ha ([8]; 8 lb/acre) was 100%. For the same compound, the pest or weed control at 2241.7 g/ha ([9]; 2 lb/acre) was 80%, the pest or weed control at 4483.4 g/ha ([9]; 4 lb/acre) was 70% and the pest or weed control at 8966.8 g/ha ([9]; 8 lb/acre) was 90%. It also gave a pest or weed control at 2241.7 g/ha ([10]; 2 lb/acre) of 50%, a pest or weed control at 4483.4 g/ha ([10]; 4 lb/acre) of 60% and a pest or weed control at 8966.8 g/ha ([10]; 8 lb/acre) of 90%. The pest or weed control at 2241.7 g/ha ([11]; 2 lb/acre) was 30%, the pest or weed control at 4483.4 g/ha ([11]; 4 lb/acre) was 40% and the pest or weed control at 8966.8 g/ha ([11]; 8 lb/acre) was 50%. It also gave a pest or weed control at 2241.7 g/ha ([12]; 2 lb/acre) of 90%, a pest or weed control at 4483.4 g/ha ([12]; 4 lb/acre) of 100% and a pest or weed control at 8966.8 g/ha ([12]; 8 lb/acre) of 100%. For the same compound, the “herbicidal effectiveness / selectivity, in words” value [13] was “extremely effective when applied to a variety of crops and weed species”, the pest or weed control ([14]; 2 lb/acre) was 30% and the pest or weed control at 4483.4 g/ha ([14]; 4 lb/acre) was 50%. The pest or weed control at 8966.8 g/ha ([14]; 8 lb/acre) was 90%, the pest or weed control ([15]; 2 lb/acre) was 20% and the pest or weed control at 4483.4 g/ha ([15]; 4 lb/acre) was 80%. For the same compound, the pest or weed control at 8966.8 g/ha ([15]; 8 lb/acre) was 80%, the pest or weed control at 2241.7 g/ha ([16]; 2 lb/acre) was 60% and the pest or weed control at 4483.4 g/ha ([16]; 4 lb/acre) was 70%. It also gave a pest or weed control at 8966.8 g/ha ([16]; 8 lb/acre) of 60%, a pest or weed control at 2241.7 g/ha ([17]; 2 lb/acre) of 40% and a pest or weed control at 4483.4 g/ha ([17]; 4 lb/acre) of 40%. The pest or weed control at 8966.8 g/ha ([17]; 8 lb/acre) was 60%, the pest or weed control ([18]; 2 lb/acre) was 90% and the pest or weed control at 4483.4 g/ha ([18]; 4 lb/acre) was 90%. The pest or weed control at 8966.8 g/ha ([18]; 8 lb/acre) was 90%, the pest or weed control at 2241.7 g/ha ([19]; 2 lb/acre) was 100% and the pest or weed control at 4483.4 g/ha ([19]; 4 lb/acre) was 100%. For the same compound, the pest or weed control at 8966.8 g/ha ([19]; 8 lb/acre) was 100%.
